Experimental data published in US12660819B2, “Herbicidal derivatives” (SYNGENTA CROP PROTECTION AG, priority 2020, dated 2026).

Legend:
Format in all cases: in vivo
[1] = test system: Echinochloa crus-galli (ECHCG); assay: Pre-emergence Test (glasshouse, percentage damage to the plant); conditions: 1000 g/ha unless otherwise stated, five-point scale
Solanum nigrum (SOLNI) [2] = assay: as above; conditions: 1000 g/ha unless otherwise stated, five-point scale
[3] = test system: Ipomoea hederacea (IPOHE); assay: as above; conditions: 1000 g/ha unless otherwise stated, five-point scale
Setaria faberi (SETFA) [4] = assay: as above; conditions: 1000 g/ha unless otherwise stated, five-point scale
[5] = test system: Amaranthus retoflexus (AMARE); assay: as above; conditions: 1000 g/ha unless otherwise stated, five-point scale
Lolium perenne (LOLPE) [6] = assay: Post-emergence Test (glasshouse, percentage damage to the plant); conditions: post-emergence spray, 1000 g/ha unless otherwise stated, evaluated after 13 days
Procedure, shortened: (§1)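 Damage was rated 13 days after treatment and expressed on a five-point scale: 5=81-100%, 4=61-80%, 3=41-60%, 2=21-40%, 1=0-20%. Spray was applied at 1000 g/ha unless otherwise stated, from acetone/water (50:50) with 0.5% Tween 20, to sown pots.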

[7] = test system: Echinochloa crus-galli (ECHCG); assay: as above; conditions: post-emergence spray, 1000 g/ha unless otherwise stated, evaluated after 13 days
Procedure, shortened: as §1

Setaria faberi (SETFA) [8] = assay: as above; conditions: post-emergence spray, 1000 g/ha unless otherwise stated, evaluated after 13 days
Procedure, shortened: (§2)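 Compound formulated in 50:50 acetone/water with 0.5% Tween 20 was diluted to an aqueous spray and applied at 1000 g/ha, unless otherwise stated, onto sown pots. Evaluation after 13 days gave percentage damage, banded into a 1–5 score.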

Solanum nigrum (SOLNI) [9] = assay: as above; conditions: post-emergence spray, 1000 g/ha unless otherwise stated, evaluated after 13 days
Procedure, shortened: as §1

[10] = test system: Amaranthus retoflexus (AMARE); assay: as above; conditions: post-emergence spray, 1000 g/ha unless otherwise stated, evaluated after 13 days
Procedure, shortened: as §1

[11] = test system: Ipomoea hederacea (IPOHE); assay: as above; conditions: post-emergence spray, 1000 g/ha unless otherwise stated, evaluated after 13 days
Procedure, shortened: as §2

Lolium perenne (LOLPE) [12] = assay: Pre-emergence Test (glasshouse, percentage damage to the plant); conditions: 1000 g/ha unless otherwise stated, five-point scale

Compound | percentage damage to the plant, ECHCG [1] | percentage damage to the plant, SOLNI (Solanum nigrum (SOLNI) [2]) | percentage damage to the plant, IPOHE [3] | percentage damage to the plant, SETFA (Setaria faberi (SETFA) [4]) | percentage damage to the plant, AMARE [5] | Post-emergence Test LOLPE, percentage damage to the plant (five-point scale) (Lolium perenne (LOLPE) [6]) | Post-emergence Test ECHCG, percentage damage to the plant (five-point scale) [7] | Post-emergence Test SETFA, percentage damage to the plant (five-point scale) (Setaria faberi (SETFA) [8]) | Post-emergence Test SOLNI, percentage damage to the plant (five-point scale) (Solanum nigrum (SOLNI) [9]) | Post-emergence Test AMARE, percentage damage to the plant (five-point scale) [10] | Post-emergence Test IPOHE, percentage damage to the plant (five-point scale) [11] | percentage damage to the plant, LOLPE (Lolium perenne (LOLPE) [12])
CCn1c(C)c(-c2ccc(Cl)cc2)c(=O)c(C(=O)O)c1-c1ccc(Cl)c(Cl)c1 [Compound 10, 5-(4-chlorophenyl)-2-(3,4-dichlorophenyl)-1-ethyl-6-methyl-4-oxo-pyridine-3-carboxylic acid] | 3 (3=41-60%) | 4 (4=61-80%) | 2 (2=21-40%) | 4 (4=61-80%) | 5 (5=81-100%) | 3 (3=41-60%) | 4 (4=61-80%) | 5 (5=81-100%) | 5 (5=81-100%) | 5 (5=81-100%) | 4 (4=61-80%) | 1 (1=0-20%)
CCn1c(C)c(-c2cncc(Cl)c2)c(=O)c(C(=O)O)c1-c1ccc(Cl)c(Cl)c1 [Compound 23, 5-(5-chloro-3-pyridyl)-2-(3,4-dichlorophenyl)-1-ethyl-6-methyl-4-oxo-pyridine-3-carboxylic acid] | 1 (1=0-20%) | 1 (1=0-20%) | 1 (1=0-20%) | 5 (5=81-100%) | 1 (1=0-20%) | 1 (1=0-20%) | 3 (3=41-60%) | 4 (4=61-80%) | 1 (1=0-20%) | 3 (3=41-60%) | 3 (3=41-60%) | 1 (1=0-20%)
CCn1c(C)c(-c2ccccc2C)c(=O)c(C(=O)O)c1-c1ccc(Cl)c(Cl)c1 [Compound 31, 2-(3,4-dichlorophenyl)-1-ethyl-6-methyl-5-(o-tolyl)-4-oxo-pyridine-3-carboxylic acid] | 1 (1=0-20%) | 4 (4=61-80%) | 1 (1=0-20%) | 4 (4=61-80%) | 1 (1=0-20%) | 2 (2=21-40%) | 1 (1=0-20%) | 3 (3=41-60%) | 4 (4=61-80%) | 3 (3=41-60%) | 2 (2=21-40%) | 1 (1=0-20%)
